One data set addresses dopamine transporter (Homo sapiens, UniProt Q01959). Nature of the data set: In vitro safety: off-target receptor binding and enzyme assays, DAT. The conditions noted are these: in vitro safety panel. As to the method:
(§1) A range of off-target receptor binding assays and enzyme assays were carried out using conventional methods available in the art.

For data set [1], the system named is major human Cytochrome P450 (CYP) enzymes. Nature of the data set: HLM TDI panel, other CYP enzymes. It is filed as in vitro ADME. The conditions noted are these: CYP enzymes other than 3A4 and 2D6.
The target in data set [2] is T1, CYP2D6 (Homo sapiens, UniProt P10635). Nature of the data set: Inhibition of recombinant CYP enzymes (rCYP), CYP2D6. The conditions noted are these: average of two experiments, read-out: rCYP IC50 2D6. It is filed as in vitro ADME.
The target in data set [3] is T1, CYP2D6. Nature of the data set: biochemical.
The target of a further data set is T2, CYP2B6 (Homo sapiens, UniProt P20813).
T2 sequence (P20813 1-491): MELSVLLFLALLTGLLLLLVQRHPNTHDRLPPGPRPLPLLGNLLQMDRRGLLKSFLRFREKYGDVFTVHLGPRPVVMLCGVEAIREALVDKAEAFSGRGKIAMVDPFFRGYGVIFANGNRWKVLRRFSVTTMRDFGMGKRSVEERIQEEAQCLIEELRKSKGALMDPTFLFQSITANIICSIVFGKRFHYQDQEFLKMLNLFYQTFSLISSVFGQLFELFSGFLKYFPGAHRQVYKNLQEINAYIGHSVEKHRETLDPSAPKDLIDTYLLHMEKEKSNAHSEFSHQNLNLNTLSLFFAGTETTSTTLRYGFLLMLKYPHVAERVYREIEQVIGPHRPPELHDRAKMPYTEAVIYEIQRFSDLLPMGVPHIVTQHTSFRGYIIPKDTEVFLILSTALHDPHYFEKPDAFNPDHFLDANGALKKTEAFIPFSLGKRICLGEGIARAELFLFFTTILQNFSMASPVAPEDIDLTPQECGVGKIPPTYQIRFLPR
In words: Inhibition of recombinant CYP enzymes (rCYP), CYP2B6. Particulars: average of two experiments, read-out: rCYP IC50 2B6. It is filed as in vitro ADME.

The next data set addresses adenosine 2A receptor (Homo sapiens, UniProt P29274). Nature of the data set: In vitro safety: off-target receptor binding and enzyme assays, A2A. Particulars: in vitro safety panel. As to the method:
as §1

Data set [4] can be described thus: In vitro metabolite elucidation in Aroclor-treated rat liver S9 (with NADPH and GSH). In kind it is in vitro ADME. As to the method:
The incubation mixtures (0.5 mL) contained N2-(3-(DIFLUOROMETHOXY)-4-(3-METHYL-1H-1,2,4-TRIAZOL-1-YL)PHENYL)-7-(4-FLUOROPHENYL)-N4,5,5-[…]-6,7-DIHYDRO-5H-CYCLOPENTA[D]PYRIMIDINE-2,4-DIAMINE (10 μM), liver S9 fractions from Aroclor 1254-treated rats (Molecular Toxicology, Boone, N.C.) (2 mg protein/mL), and glutathione (GSH, 5 mM) in a 100 mM potassium phosphate buffer (pH 7.4). The final concentration of acetonitrile in the S9 fraction incubations was 0.5% (v/v). The reactions were initiated by adding β-nicotinamide adenine dinucleotide 2′-phosphate reduced tetrasodium salt (NADPH, final concentration as 1 mM) and the incubations were carried out at 37° C. […] The filtrate was collected in a 96-well plate and evaporated to approximately 25% of the original volume under nitrogen gas, and the remaining aqueous phase was analyzed using high-performance liquid chromatography with ultraviolet (UV) spectroscopic and mass spectrometric detection (LC-UV/MS) under the conditions described in Section 1.2.
Bioanalytical methods were as follows: The LC-UV/MS system consisted of a Waters Acquity binary solvent manager, a sample manager, a photodiode array (PDA) detector, and a Xevo Q-TOF mass spectrometer (Waters Corporation, Milford, Mass.). […] Column effluent was analyzed in-line using a PDA detector followed by the mass spectrometer. […]

Several values for one entry are separate records, joined by “and”; a condition that tells them apart may be missing. Identical values can stand only once.

Results on one molecule are retold here after patent US9833454B2, “Difluoromethoxy compound with low bioactivation potential for the reduction of beta-amyloid production” (BRISTOL-MYERS SQUIBB COMPANY, priority 2014, dated 2017).

T1 sequence (P10635 whole entry): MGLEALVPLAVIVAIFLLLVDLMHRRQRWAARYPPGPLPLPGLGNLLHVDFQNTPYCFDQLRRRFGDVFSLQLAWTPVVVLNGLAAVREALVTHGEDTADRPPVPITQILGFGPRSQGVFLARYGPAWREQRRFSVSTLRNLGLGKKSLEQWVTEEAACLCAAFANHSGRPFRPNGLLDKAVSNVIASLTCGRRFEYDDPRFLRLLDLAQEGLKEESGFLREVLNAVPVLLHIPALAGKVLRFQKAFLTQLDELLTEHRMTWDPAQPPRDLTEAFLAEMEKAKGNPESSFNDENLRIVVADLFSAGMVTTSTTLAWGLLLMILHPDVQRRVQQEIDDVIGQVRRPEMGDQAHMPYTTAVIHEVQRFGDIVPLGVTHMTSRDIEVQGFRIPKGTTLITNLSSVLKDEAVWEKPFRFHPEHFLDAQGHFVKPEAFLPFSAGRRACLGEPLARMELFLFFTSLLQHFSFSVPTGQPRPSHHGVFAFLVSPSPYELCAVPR
Chain of adenosine 2A receptor (P29274 whole entry): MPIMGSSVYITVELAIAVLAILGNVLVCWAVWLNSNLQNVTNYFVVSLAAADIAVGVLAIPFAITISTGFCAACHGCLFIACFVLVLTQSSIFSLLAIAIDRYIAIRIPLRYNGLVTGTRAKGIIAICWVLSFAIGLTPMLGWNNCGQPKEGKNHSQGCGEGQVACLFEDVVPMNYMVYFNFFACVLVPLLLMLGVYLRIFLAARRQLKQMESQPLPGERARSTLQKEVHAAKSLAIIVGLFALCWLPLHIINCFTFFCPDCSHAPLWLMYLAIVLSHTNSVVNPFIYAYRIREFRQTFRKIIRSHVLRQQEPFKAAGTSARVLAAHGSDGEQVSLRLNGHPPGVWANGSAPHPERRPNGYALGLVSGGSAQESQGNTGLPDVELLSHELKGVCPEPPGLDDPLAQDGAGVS
Chain of dopamine transporter (Q01959 whole entry): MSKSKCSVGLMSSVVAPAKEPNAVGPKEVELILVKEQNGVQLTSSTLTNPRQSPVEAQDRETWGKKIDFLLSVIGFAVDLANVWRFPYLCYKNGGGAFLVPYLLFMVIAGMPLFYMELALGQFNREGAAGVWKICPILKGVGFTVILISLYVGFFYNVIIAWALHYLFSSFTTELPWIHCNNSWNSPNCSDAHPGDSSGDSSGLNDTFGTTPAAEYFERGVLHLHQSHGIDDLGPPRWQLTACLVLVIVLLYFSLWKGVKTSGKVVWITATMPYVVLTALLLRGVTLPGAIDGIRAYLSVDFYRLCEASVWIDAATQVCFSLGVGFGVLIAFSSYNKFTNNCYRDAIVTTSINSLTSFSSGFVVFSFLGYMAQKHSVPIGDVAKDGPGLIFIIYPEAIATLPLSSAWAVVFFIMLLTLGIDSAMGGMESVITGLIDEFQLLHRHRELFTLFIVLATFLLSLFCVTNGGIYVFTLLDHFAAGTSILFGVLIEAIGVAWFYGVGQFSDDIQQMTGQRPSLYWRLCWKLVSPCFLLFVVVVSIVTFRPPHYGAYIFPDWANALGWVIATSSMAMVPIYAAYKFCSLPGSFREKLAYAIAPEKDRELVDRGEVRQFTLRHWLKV

For orientation: IC50 means the midpoint of a concentration-inhibition curve. For `CNc1nc(Nc2ccc(-n3cnc(C)n3)c(OC(F)F)c2)nc2c1C(C)(C)CC2c1ccc(F)cc1` (single isomer, unassigned) [Enantiomer 1, N2-(3-(difluoromethoxy)-4-(3-methyl-1H-1,2,4-triazol-1-yl)phenyl)-7-(4-fluorophenyl)-N4,5,5-trimethyl-6,7-dihydro-5H-cyclopenta[d]pyrimidine-2,4-diamine], the concentration for half-maximal inhibition (IC50) on dopamine transporter was 8 to 10 µM; on CYP2D6 [2], more than 20 µM; on CYP2D6 [3], 34.5 µM and 15.6 µM; at CYP2B6, more than 20 µM; on adenosine 2A receptor, 2 µM. Also, the “HLM TDI panel TDI ratio, others” value in data set [1] is less than 2. In data set [4] (10 μM, 30-minute incubation with NADPH and GSH, UV 300 nm), the “Estimated Percent (%) of The Original Parent Level (P) Based on UV Peak Areas” value was 76%. In data set [4] (NADPH and GSH), the “GSH Adducts” value was “No GSH conjugates were detected”.
